Source: PubChem BioAssay (NCI)
Where “and” joins values, the source holds several entries; their conditions need not be identical. Equal values may be shown once.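 Protocol summary: plate cells (96-well), add compound at 5 concentrations, incubate 48 h, interpolate endpoints linearly. Abbreviation: GI50, concentration required for 50% inhibition of growth. Definition used: TGI = concentration required for complete inhibition of growth.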

Key:
Assay in all cases: inhibition of tumour cell growth, NCI panel, 48 h
[1] = tested on: HL-60(TB) leukemia
[2] = tested on: IGROV1 ovarian
[3] = tested on: HOP-62 NSCLC
[4] = tested on: SW-620 colon
[5] = tested on: HT29 colon
[6] = tested on: MALME-3M melanoma
[7] = tested on: MOLT-4 leukemia
[8] = tested on: HS 578T breast
[9] = tested on: SF-268 CNS
[10] = tested on: SF-539 CNS
[11] = tested on: HCT-15 colon
[12] = tested on: BT-549 breast
[13] = tested on: PC-3 prostate
[14] = tested on: HOP-92 NSCLC
[15] = tested on: RPMI-8226 leukemia
[16] = tested on: OVCAR-8 ovarian
[17] = tested on: UO-31 renal
[18] = tested on: CCRF-CEM leukemia
[19] = tested on: MCF7 breast
[20] = tested on: U251 CNS
[21] = tested on: DU-145 prostate
[22] = tested on: SNB-19 CNS
[23] = tested on: COLO 205 colon
[24] = tested on: MDA-MB-231 breast
[25] = tested on: ACHN renal
[26] = tested on: K-562 leukemia
[27] = tested on: UACC-62 melanoma
[28] = tested on: M14 melanoma
[29] = tested on: KM12 colon
[30] = tested on: SN12C renal
[31] = tested on: RXF 393 renal
[32] = tested on: HCC-2998 colon
[33] = tested on: SK-MEL-5 melanoma
[34] = tested on: NCI-H460 lung
[35] = tested on: LOX IMVI melanoma
[36] = tested on: SK-MEL-2 melanoma
[37] = tested on: NCI-H522 lung
[38] = tested on: SF-295 CNS
[39] = tested on: CAKI-1 renal
[40] = tested on: EKVX NSCLC
[41] = tested on: SR leukemia
[42] = tested on: SK-MEL-28 melanoma
[43] = tested on: OVCAR-4 ovarian
[44] = tested on: MDA-MB-435
[45] = tested on: HCT-116 colon
[46] = tested on: OVCAR-5 ovarian
[47] = tested on: 786-0 renal
[48] = tested on: UACC-257 melanoma
[49] = tested on: NCI-H226 lung
[50] = tested on: SK-OV-3 ovarian
[51] = tested on: NCI-H23 lung
[52] = tested on: A549 NSCLC
[53] = tested on: NCI/ADR-RES ovarian
[54] = tested on: A498 renal
[55] = tested on: OVCAR-3 ovarian
[56] = tested on: SNB-75 CNS
[57] = tested on: T-47D breast
[58] = tested on: TK-10 renal

SMILES: CC(=O)c1cc(C(=O)c2ccc3c(c2)Sc2ccccc2N3)n2ccccc12
- GI50 [1]: 2.37 nM
- TGI [1]: 5.6 nM
- GI50 [2]: 8.97 nM and 25.8 nM
- TGI [2]: > 33200 nM
- GI50 [3]: 3.99 nM and 3.32 nM
- TGI [3]: > 33200 nM
- GI50 [4]: 3.63 nM and 3.32 nM
- TGI [4]: > 33200 nM
- GI50 [5]: 3.5 nM and 3.32 nM
- GI50 [6]: 4.87 nM
- GI50 [7]: 6.23 nM and 3.32 nM
- TGI [7]: > 33200 nM
- GI50 [8]: 3.75 nM and 3.32 nM
- TGI [8]: > 33200 nM
- TGI [9]: > 33200 nM
- GI50 [10]: 2.78 nM and 3.32 nM
- TGI [10]: 9.49 nM and 10.3 nM
- GI50 [11]: 4.72 nM and 3.32 nM
- TGI [11]: > 33200 nM
- GI50 [12]: 7.73 nM and 26.2 nM
- TGI [12]: > 33200 nM
- GI50 [13]: 4.53 nM and 3.32 nM
- TGI [13]: > 33200 nM
- TGI [14]: 14500 nM
- GI50 [15]: 5.85 nM and 3.32 nM
- TGI [15]: 20600 nM
- GI50 [16]: 7.52 nM and 3.32 nM
- TGI [16]: > 33200 nM
- GI50 [17]: 5.79 nM and 3.32 nM
- TGI [17]: > 33200 nM
- GI50 [18]: 3.3 nM and 3.32 nM
- TGI [18]: > 33200 nM
- GI50 [19]: 3.44 nM and 3.32 nM
- TGI [19]: > 33200 nM
- GI50 [20]: 4.92 nM and 3.32 nM
- TGI [20]: 16400 nM
- GI50 [21]: 5.14 nM and 3.32 nM
- TGI [21]: > 33200 nM
- GI50 [22]: 8.24 nM
- GI50 [23]: 3.27 nM and 3.32 nM
- TGI [23]: 21.3 nM and 9.93 nM
- GI50 [24]: 6.51 nM and 20.3 nM
- GI50 [25]: 5.45 nM
- GI50 [26]: 3.85 nM and 3.32 nM
- TGI [26]: > 33200 nM
- GI50 [27]: 2.93 nM and 3.32 nM
- TGI [27]: > 33200 nM
- GI50 [28]: 3.38 nM and 3.32 nM
- TGI [28]: > 33200 nM
- GI50 [29]: 4.41 nM
- TGI [30]: > 33200 nM
- GI50 [31]: 3.32 nM
- TGI [31]: 20500 nM
- GI50 [32]: 19.9 nM and 29.5 nM
- TGI [32]: > 33200 nM
- GI50 [33]: 5.26 nM and 3.32 nM
- TGI [33]: 818 nM and 742 nM
- GI50 [34]: 3.39 nM and 3.32 nM
- GI50 [35]: 5.87 nM and 3.32 nM
- TGI [35]: > 33200 nM
- GI50 [36]: 4.77 nM
- GI50 [37]: 1.77 nM
- TGI [37]: 5.17 nM
- GI50 [38]: 2.84 nM
- TGI [38]: 76 nM
- GI50 [39]: 3.68 nM and 3.69 nM
- TGI [39]: > 33200 nM
- GI50 [40]: 29.1 nM and 4.98 nM
- TGI [40]: > 33200 nM
- GI50 [41]: 4.59 nM and 3.32 nM
- TGI [41]: > 33200 nM
- TGI [42]: > 33200 nM
- GI50 [43]: 14.5 nM
- GI50 [44]: 1.8 nM and < 3.32 nM
- TGI [44]: 4.53 nM and < 3.32 nM
- GI50 [45]: 3.98 nM and 3.32 nM
- GI50 [46]: 37.6 nM and 199 nM
- TGI [46]: > 33200 nM
- GI50 [47]: 4.59 nM
- GI50 [48]: 3.32 nM
- TGI [48]: > 33200 nM
- TGI [49]: > 33200 nM
- GI50 [50]: 4.38 nM and 3.32 nM
- TGI [50]: 21500 nM
- GI50 [51]: 7.73 nM and 3.32 nM
- TGI [51]: > 33200 nM
- GI50 [52]: 6.13 nM and 3.32 nM
- TGI [52]: > 33200 nM
- GI50 [53]: 3.93 nM and 3.32 nM
- TGI [53]: 1860 nM
- GI50 [54]: 2.25 nM and 3.32 nM
- GI50 [55]: 3.65 nM

SMILES: CCCCCCCc1n(Cc2ccc3ccccc3c2)c2ccccc2[n+]1Cc1ccc2ccccc2c1
- GI50 [1]: 186 nM
- TGI [1]: 569 nM
- GI50 [8]: 1200 nM
- TGI [8]: 3670 nM
- GI50 [9]: 345 nM
- TGI [9]: 1490 nM
- GI50 [14]: 163 nM
- TGI [14]: 670 nM
- GI50 [50]: 870 nM
- TGI [50]: 2280 nM

SMILES: O=C(CSCC(=O)N/N=C\c1cccc([N+](=O)[O-])c1)N/N=C\c1cccc([N+](=O)[O-])c1
- TGI [1]: > 100000 nM
- TGI [56]: 65600 nM
- TGI [2]: 68700 nM
- TGI [3]: 16300 nM
- TGI [4]: > 100000 nM
- TGI [5]: > 100000 nM
- TGI [6]: 69100 nM
- TGI [7]: > 100000 nM
- TGI [8]: > 100000 nM
- TGI [9]: > 100000 nM
- TGI [10]: 84700 nM
- TGI [11]: 67800 nM
- TGI [14]: > 100000 nM
- TGI [57]: > 100000 nM
- TGI [15]: > 100000 nM
- TGI [16]: > 100000 nM
- TGI [17]: > 100000 nM
- TGI [18]: > 100000 nM
- TGI [19]: > 100000 nM
- TGI [20]: 32400 nM
- TGI [21]: > 100000 nM
- TGI [22]: > 100000 nM
- TGI [23]: > 100000 nM
- TGI [24]: 53800 nM
- TGI [25]: 33700 nM
- TGI [27]: > 100000 nM
- TGI [28]: > 100000 nM
- TGI [29]: > 100000 nM
- TGI [30]: > 100000 nM
- TGI [31]: > 100000 nM
- TGI [32]: > 100000 nM
- TGI [33]: > 100000 nM
- TGI [34]: > 100000 nM
- TGI [35]: > 100000 nM
- TGI [36]: > 100000 nM
- TGI [58]: 36400 nM
- TGI [37]: > 100000 nM
- TGI [38]: 30500 nM
- TGI [39]: 64400 nM
- TGI [40]: > 100000 nM
- TGI [41]: > 100000 nM
- TGI [42]: > 100000 nM
- TGI [43]: > 100000 nM
- TGI [44]: > 100000 nM
- TGI [45]: > 100000 nM
- TGI [47]: 63600 nM
- TGI [48]: > 100000 nM
- TGI [49]: > 100000 nM
- TGI [50]: > 100000 nM
- TGI [51]: 31100 nM
- TGI [52]: > 100000 nM
- TGI [53]: 60000 nM
- TGI [54]: > 100000 nM
- TGI [55]: 84100 nM
